Laboratory results as given in PubChem BioAssay AID1919001 (Molecular Pharmacology Branch, DTP, NCI, 2023).

System: 699152-130-R-J1-PDC complex spheroid growth
Experiment: Anticancer human tumor 699152-130-R-J1-PDC patient-derived pancreatic carcinoma cell line growth inhibition [AhR]
Conditions: for IC50: curve of first compound; for viability, T/C: stronger effect = lower value
Method in brief: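 Agents were dosed in half-log steps down from roughly clinical Cmax, or from 10 microM where Cmax was unknown, alone and with AhR antagonists. Read-out: percent test/control growth of tumor spheroids containing HUVEC and MSC stromal cells.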

[1] = second compound 0.1 µM, first compound 0.0316 µM
[2] = second compound 0.1 µM, first compound 0.1 µM
[3] = second compound 0.1 µM, first compound 0.316 µM
[4] = second compound 0.1 µM, first compound 1 µM
[5] = second compound 0.1 µM, first compound 3.16 µM
[6] = second compound 0.1 µM, first compound 10 µM
[7] = second compound 0.316 µM, first compound 0.0316 µM
[8] = second compound 0.316 µM, first compound 0.1 µM
[9] = second compound 0.316 µM, first compound 0.316 µM
[10] = second compound 0.316 µM, first compound 1 µM
[11] = second compound 0.316 µM, first compound 3.16 µM
[12] = second compound 0.316 µM, first compound 10 µM
[13] = second compound 1 µM, first compound 0.0316 µM
[14] = second compound 1 µM, first compound 0.1 µM
[15] = second compound 1 µM, first compound 0.316 µM
[16] = second compound 1 µM, first compound 1 µM
[17] = second compound 1 µM, first compound 3.16 µM
[18] = second compound 1 µM, first compound 10 µM
[19] = second compound 3.16 µM, first compound 0.0316 µM
[20] = second compound 3.16 µM, first compound 0.1 µM
[21] = second compound 3.16 µM, first compound 0.316 µM
[22] = second compound 3.16 µM, first compound 1 µM
[23] = second compound 3.16 µM, first compound 3.16 µM
[24] = second compound 3.16 µM, first compound 10 µM
[25] = second compound 10 µM, first compound 0.0316 µM
[26] = second compound 10 µM, first compound 0.1 µM
[27] = second compound 10 µM, first compound 0.316 µM
[28] = second compound 10 µM, first compound 1 µM
[29] = second compound 10 µM, first compound 3.16 µM
[30] = second compound 10 µM, first compound 10 µM
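Further: compound exposure lasted 7 days after spheroids had grown for 3 days.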

Row | Compound | IC50 (second compound 0.1 µM) | IC50 (second compound 0.316 µM) | IC50 (second compound 1 µM) | IC50 (second compound 3.16 µM) | IC50 (second compound 10 µM) | viability, T/C [1] | viability, T/C [2] | viability, T/C [3] | viability, T/C [4] | viability, T/C [5] | viability, T/C [6] | viability, T/C [7] | viability, T/C [8] | viability, T/C [9] | viability, T/C [10] | viability, T/C [11] | viability, T/C [12] | viability, T/C [13] | viability, T/C [14] | viability, T/C [15] | other results
1 | Nc1ccn(C2OC(CO)C(O)C2(F)F)c(=O)n1 (stereo not given) + CC(CO)NC(=O)c1cc(-c2ccc(Cl)cc2)nn(-c2cnn(C)c2)c1=O | 5750 nM | 10000 nM | 7010 nM | 2910 nM | 9150 nM | 67.1% | 73.4% | 62% | 56.4% | 52.6% | 48.1% | 67% | 73.1% | 50.8% | 53.6% | 50.6% | 47% | 68.8% | 69.5% | 63.5% | viability, T/C [16]: 61.5%; viability, T/C [17]: 56.7%; viability, T/C [18]: 47.1%; viability, T/C [19]: 66.1%; viability, T/C [20]: 67.4%; viability, T/C [21]: 55.8%; viability, T/C [22]: 54.3%; viability, T/C [23]: 49.2%; viability, T/C [24]: 46.3%; viability, T/C [25]: 68.9%; viability, T/C [26]: 70.7%; viability, T/C [27]: 62%; viability, T/C [28]: 60.9%; viability, T/C [29]: 53.9%; viability, T/C [30]: 50%
2 | NS(=O)(=O)OCC1CC(n2ccc3c(NC4CCc5ccccc54)ncnc32)CC1O (stereo not given) + Cc1ccccc1N=Nc1ccc(NC(=O)c2ccnn2C)c(C)c1 | 807 nM | 724 nM | 739 nM | 694 nM | 542 nM | 98.3% | 107% | 107% | 37.5% | 21.6% | 25.2% | 102% | 103% | 104% | 29.4% | 18.5% | 20.1% | 105% | 116% | 105% | viability, T/C [16]: 30.3%; viability, T/C [17]: 20.2%; viability, T/C [18]: 27.1%; viability, T/C [19]: 115%; viability, T/C [20]: 115%; viability, T/C [21]: 96.7%; viability, T/C [22]: 28.4%; viability, T/C [23]: 20.8%; viability, T/C [24]: 24.9%; viability, T/C [25]: 122%; viability, T/C [26]: 125%; viability, T/C [27]: 67.3%; viability, T/C [28]: 32.9%; viability, T/C [29]: 27.2%; viability, T/C [30]: 30.8%
